In brackets after ≈: the same amount, converted by molar mass. Like-named read-outs stand apart in the source and are kept apart here.
Key:
Assay type in all cases: cell-based
FIV (strain Petaluma) = test: Anti-FIV assay, p24 antigen in CrFK cells; settings: Table 2; for EC50: Feline immunodeficiency virus, CRFK
Experimental: For the anti-FIV assays, 10^5 CrFK cells were seeded onto 24-well tissue culture plates. Cells were cultured with 2 ml of culture medium/well containing 2.5% of fetal calf serum in the presence of various drug concentrations. The assays were carried out in triplicate. After a 1-hr incubation period at 37° C., cells were infected with FIV. Virus was left in contact with the cultures for 1 day, after which the medium was removed and new medium containing the appropriate drug concentrations was added. After 6 days, the presence of FIV p24 antigen was examined by an antigen capture assay.

CEM cells = test: Incorporation of [3H]thymidine, [3H]uridine and [3H]leucine into CEM cell material; settings: 200 μg/mL; 12 hour incubation period
Experimental: The incorporation of [methyl-^3H]thymidine, [^3H]uridine and [^3H]leucine into the methanol-insoluble CEM cell fraction was also measured in microplates. To each well were added 10^5 CEM cells, 5.9 pmol (0.25 μCi) of [methyl-^3H]thymidine, 38 pmol (1.0 μCi) of [^3H]uridine and 19 pmol (1.0 μCi) [4,5-^3H]leucine, and a given amount of the test compound. […] At the end of this incubation period, the contents of the wells (200 μl) were brought onto 25-mm glass fiber filters (type A/G; Gelman Instrument Co., Ann Arbor, Mich.) mounted on a Millipore 3025 sampling manifold apparatus. The filters were washed twice with cold PBS (phosphate-buffered saline), twice with cold 10% trichloroacetic acid, twice with cold 5% trichloroacetic acid, once with cold ethanol, and once with cold ether. The filters were then allowed to dry for 10 min at 60° C. and assayed for radioactivity in a toluene-based scintillant.

HIV-2(ROD) = test: HIV-2(ROD)-induced cytopathicity in MT-4 cell cultures
Description: Viruses. The origins of MSV, HIV type 1 (HIV-1) (strain IIIB and Ba-L), HIV-2 (strain ROD) and FIV (strain Petaluma) have been described previously (Balzarini et al., AIDS 5: 21-28, 1991; De Clercq et al., Proc. Soc. Exp. Biol. Med. 137:590-594, 1971; Egberink et al., Proc. Natl. Acad. Sci. 87:3087-3091, 1990; Hartmann et al., Antiviral Chem. Chemother. 5:13-19, 1994; Popovic et al., Science 224:497-500, 1984). HIV-1(IIIB) and HIV-2(ROD) stocks were obtained from supernatants of virus-infected MT-4 cell cultures. HIV-1BaL was expanded in human primary M/M, whose supernatants were collected, filtered and stored at −80° C. before use. Characteristics of viral stocks used for this study were 2.1×10^8 HIV-RNA genomes/ml (corresponding to 35 ng of p24 antigen) and 5,000 tissue culture infectious doses 50% per ml (TCID50/ml) as assessed by virus titration in other primary M/M cultures. The isolation and characterization of the clinical HIV-1 isolates L1S, L6S and L6S/PMEA has been reported (Thormar et al., Proc. Natl. Acad. Sci. USA 93:3283-3287, 1995; Van Laethem et al., AIDS 15:553-561, 2001). […] HIV-1/L6S/PMEA is the clinical isolate HIV-1/L6S that has been isolated after culturing the virus for 11 passages in the presence of increasing concentrations of PMEA (adefovir).
In vitro antiviral assays. The activity against HIV-1- and HIV-2-induced cytopathicity was examined in MT-4 cell cultures at day 5 post infection and based on the determination of cell viability by trypan blue dye staining or in CEM cell cultures at day 4 to 5 post infection and based on the microscopical examination of virus-induced giant cell formation. HIV-1 and HIV-2 were added at 100 CCID50 to the cell cultures.

[1] = Human immunodeficiency virus 2, MT4, read-out: EC50 HIV-2 (ROD) (MT-4)

SMILES | EC50 (FIV (strain Petaluma)) [µg/mL] | Inhibition of [3H]dThd, [3H]Urd and [3H]leu incorporation into TCA-insoluble CEM cell material (macromolecular synthesis) (CEM cells) | EC50 (HIV-2(ROD); Human immunodeficiency virus 2, MT4, Table 2, read-out: EC50 HIV-2 (ROD) (MT-4)) [µg/mL] | EC50 FIV (CrFK) (FIV (strain Petaluma)) [µg/mL] | EC50 HIV-2 (ROD) (MT-4) (HIV-2(ROD); Table 2) [µg/mL] | EC50 (HIV-2(ROD); [1]) [µg/mL]
Nc1ncnc2c1ncn2CCOCP(=O)(O)O [PMEA, 9-[(2-phosphono-methoxy)ethyl]adenine, reference compound] | 0.46 ± 0.19 (≈ 1.68 µM) | not inhibitory | 1.9 (≈ 6.95 µM) |  |  | 
C[C@H](COc1cc(N)nc(N)n1)OCP(=O)(O)O [Compound 11, 2,4-diamino-6-(R)-[2-(phosphonomethoxy)propoxy]pyrimidine] |  | Neither compounds 1 nor 2, nor compound 11 were inhibitory |  | 0.66 ± 0.14 (≈ 2.37 µM) | 1.6 ± 0.6 (≈ 5.75 µM) | 
Nc1cc(OCCOCP(=O)(O)O)nc(N)n1 [Compound 1, 2,4-diamino-6-[2-(phosphonomethoxy)ethoxy]pyrimidine] | 0.25 ± 0.01 (≈ 0.946 µM) | Neither compounds 1 nor 2, nor compound 11 were inhibitory |  |  |  | 0.29 (≈ 1.1 µM)
C[C@H](Cn1cnc2c(N)ncnc21)OCP(=O)(O)O [(R)-PMPA, (R)-9-[(2-phosphonomethoxy)-propyl]adenine, reference compound] |  | not inhibitory |  | 0.13 (≈ 0.453 µM) | 0.52 (≈ 1.81 µM) | 
Nc1cc(SCCOCP(=O)(O)O)nc(N)n1 [Compound 2, 2,4-diamino-6-{[2-(phosphonomethoxy)ethyl]-sulfanyl}pyrimidine] | 0.97 ± 0.4 (≈ 3.46 µM) | Neither compounds 1 nor 2, nor compound 11 were inhibitory |  |  |  | 2.9 (≈ 10.3 µM)
